Data reported in ChEMBL document CHEMBL4184182, “Studies on interactions of carbazole derivatives with DNA, cell image, and cytotoxicity” (Bioorg Med Chem, 2018).
Active and inactive are the calls of the source. The calls are words filed in the database; no cut-off is given here.

Assays:
Quadruplex DNA [1] = assay: Binding affinity to c-Myc G-quadruplex DNA (unknown origin) assessed as hyperchromicity at 15 uM after 5 mins by UV-Visible absorbance titration method; assay type: nucleic-acid assay
Quadruplex DNA [2] = assay: Binding affinity to human telomeric G-quadruplex DNA assessed as hyperchromicity at 15 uM after 5 mins in presence of sodium ion by UV-Visible absorbance titration method; assay type: nucleic-acid assay
Quadruplex DNA [3] = assay: Binding affinity to c-Kit G-quadruplex DNA (unknown origin) assessed as red shift at 15 uM after 5 mins by UV-Visible absorbance titration method; assay type: nucleic-acid assay
Quadruplex DNA [4] = assay: Binding affinity to c-Myc G-quadruplex DNA (unknown origin) assessed as red shift at 15 uM after 5 mins by UV-Visible absorbance titration method; assay type: nucleic-acid assay
Calf thymus DNA [5] = assay: Binding affinity to calf thymus DNA assessed as absorption maximum at 5 uM after 5 mins by fluorescence titration method (reference value: 405 nanometer); assay type: nucleic-acid assay; conditions: Bos taurus
dsDNA [6] = assay: Binding affinity to 26-mer duplex DNA (unknown origin) assessed as absorption maximum at 5 uM after 5 mins by fluorescence titration method (reference value: 405 nanometer); assay type: nucleic-acid assay
Quadruplex DNA [7] = assay: Binding affinity to c-Kit G-quadruplex DNA (unknown origin) assessed as absorption maximum at 5 uM after 5 mins by fluorescence titration method (reference value: 405 nanometer); assay type: nucleic-acid assay
Quadruplex DNA [8] = assay: Binding affinity to human telomeric G-quadruplex DNA assessed as absorption maximum at 5 uM after 5 mins in presence of sodium ion by fluorescence titration method (reference value: 405 nanometer); assay type: nucleic-acid assay
dsDNA [9] = assay: Binding affinity to 26-mer duplex DNA (unknown origin) assessed as emission maximum at 5 uM after 5 mins by fluorescence titration method (reference value: 559 nanometer); assay type: nucleic-acid assay
Quadruplex DNA [10] = assay: Binding affinity to c-Myc G-quadruplex DNA (unknown origin) assessed as emission maximum at 5 uM after 5 mins by fluorescence titration method (reference value: 559 nanometer); assay type: nucleic-acid assay
Quadruplex DNA [11] = assay: Binding affinity to human telomeric G-quadruplex DNA assessed as emission maximum at 5 uM after 5 mins in presence of potassium ion by fluorescence titration method (reference value: 559 nanometer); assay type: nucleic-acid assay
Quadruplex DNA [12] = assay: Binding affinity to c-Kit G-quadruplex DNA (unknown origin) assessed as compound fluorescence life time at 5 uM after 5 mins by fluorescence titration method (reference value: 3.626 nanoseconds); assay type: nucleic-acid assay
Quadruplex DNA [13] = assay: Binding affinity to Bcl2 G-quadruplex DNA (unknown origin) assessed as compound fluorescence life time at 5 uM after 5 mins by fluorescence titration method (reference value: 3.626 nanoseconds); assay type: nucleic-acid assay
Quadruplex DNA [14] = assay: Binding affinity to human telomeric G-quadruplex DNA assessed as compound fluorescence life time at 5 uM after 5 mins in presence of sodium ion by fluorescence titration method (reference value: 3.626 nanoseconds); assay type: nucleic-acid assay
Quadruplex DNA [15] = assay: Binding affinity to human telomeric G-quadruplex DNA assessed as enhanced fluorescence time at 5 uM after 5 mins in presence of potassium ion by fluorescence titration assay relative to control; assay type: nucleic-acid assay
Quadruplex DNA [16] = assay: Binding affinity to Bcl2 G-quadruplex DNA (unknown origin) assessed as enhanced fluorescence time at 5 uM after 5 mins by fluorescence titration assay relative to control; assay type: nucleic-acid assay
Quadruplex DNA [17] = assay: Binding affinity to human telomeric G-quadruplex DNA assessed as enhanced fluorescence time at 5 uM after 5 mins in presence of sodium ion by fluorescence titration assay relative to control; assay type: nucleic-acid assay
Quadruplex DNA [18] = assay: Binding affinity to c-Kit G-quadruplex DNA (unknown origin) assessed as enhanced fluorescence ratio at 5 uM after 5 mins by fluorescence titration assay relative to control; assay type: nucleic-acid assay
Quadruplex DNA [19] = assay: Binding affinity to human telomeric G-quadruplex DNA assessed as enhanced fluorescence ratio at 5 uM after 5 mins in presence of potassium ion by fluorescence titration assay relative to control; assay type: nucleic-acid assay
dsDNA [20] = assay: Binding affinity to 26-mer duplex DNA (unknown origin) assessed as enhanced fluorescence ratio at 5 uM after 5 mins in presence of sodium ion by fluorescence titration assay relative to control; assay type: nucleic-acid assay
HepG2 = assay: Induction of morphological changes in human HepG2 cells assessed as cellular clumping at 10 uM after 24 hrs; assay type: functional, cell-based
[21] = Drug uptake in human HepG2 cell cytoplasm at 10 uM after 2.5 hrs by confocal microscopic method; assay type: ADME, subcellular; conditions: hepg2, 2.5 h
[22] = Drug uptake in DNase-1 treated human HepG2 cell nucleus at 10 uM after 2.5 hrs by confocal microscopic method; assay type: ADME, subcellular; conditions: hepg2, 2.5 h
[23] = Drug uptake in RNase-A treated human HepG2 cell nucleus at 10 uM after 2.5 hrs by confocal microscopic method; assay type: ADME, subcellular; conditions: hepg2, 2.5 h
Calf thymus DNA [24] = assay: Binding affinity to calf thymus DNA assessed as hyperchromicity at 10 uM after 5 mins by UV-Visible absorbance titration method; assay type: nucleic-acid assay; conditions: Bos taurus
Quadruplex DNA [25] = assay: Binding affinity to human telomeric G-quadruplex DNA assessed as hyperchromicity at 10 uM after 5 mins in presence of potassium ion by UV-Visible absorbance titration method; assay type: nucleic-acid assay
dsDNA [26] = assay: Binding affinity to 26-mer duplex DNA (unknown origin) assessed as red shift at 10 uM after 5 mins by UV-Visible absorbance titration method; assay type: nucleic-acid assay
Quadruplex DNA [27] = assay: Binding affinity to human telomeric G-quadruplex DNA assessed as red shift at 10 uM after 5 mins in presence of potassium ion by UV-Visible absorbance titration method; assay type: nucleic-acid assay
dsDNA [28] = assay: Binding affinity to 26-mer duplex DNA (unknown origin) assessed as absorption maximum at 5 uM after 5 mins by fluorescence titration method (reference value: 453 nanometer); assay type: nucleic-acid assay
dsDNA [29] = assay: Binding affinity to 26-mer duplex DNA (unknown origin) assessed as emission maximum at 5 uM after 5 mins by fluorescence titration method (reference value: 584 nanometer); assay type: nucleic-acid assay
Quadruplex DNA [30] = assay: Binding affinity to Bcl2 G-quadruplex DNA (unknown origin) assessed as emission maximum at 5 uM after 5 mins by fluorescence titration method (reference value: 584 nanometer); assay type: nucleic-acid assay
Quadruplex DNA [31] = assay: Binding affinity to c-Myc G-quadruplex DNA (unknown origin) assessed as emission maximum at 5 uM after 5 mins by fluorescence titration method (reference value: 584 nanometer); assay type: nucleic-acid assay
Quadruplex DNA [32] = assay: Binding affinity to human telomeric G-quadruplex DNA assessed as emission maximum at 5 uM after 5 mins in presence of sodium ion by fluorescence titration method (reference value: 584 nanometer); assay type: nucleic-acid assay
dsDNA [33] = assay: Binding affinity to 26-mer duplex DNA (unknown origin) assessed as compound fluorescence life time at 5 uM after 5 mins by fluorescence titration method (reference value: 0.192 nanoseconds); assay type: nucleic-acid assay
Quadruplex DNA [34] = assay: Binding affinity to c-Myc G-quadruplex DNA (unknown origin) assessed as compound fluorescence life time at 5 uM after 5 mins by fluorescence titration method (reference value: 0.192 nanoseconds); assay type: nucleic-acid assay
Quadruplex DNA [35] = assay: Binding affinity to human telomeric G-quadruplex DNA assessed as compound fluorescence life time at 5 uM after 5 mins in presence of potassium ion by fluorescence titration method (reference value: 0.192 nanoseconds); assay type: nucleic-acid assay
[36] = Drug uptake in DNase-1 treated human HepG2 cell nucleus at 3 uM after 30 mins by H33258.staining based confocal microscopic method; assay type: ADME, subcellular; conditions: hepg2, 0.5 h
[37] = Drug uptake in RNase-A treated human HepG2 cell cytoplasm at 3 uM after 30 mins by H33258.staining based confocal microscopic method; assay type: ADME, subcellular; conditions: hepg2, 0.5 h

**Q.** For `CCn1c2ccccc2c2cc(/C=C(\C#N)c3ccc[n+](C)c3)ccc21.[I-]`, which Activity (Quadruplex DNA [1]) is on record?
**A.** Its Activity is 41.7%.

**Q.** What about the Activity (Quadruplex DNA [2]) of the same compound?
**A.** The Activity was 37.9%.

**Q.** And the Activity (Quadruplex DNA [3])?
**A.** The Activity was 27 nm.

**Q.** What about the Activity (Quadruplex DNA [4]) of the same compound?
**A.** Its Activity is 25 nm.

**Q.** What about the Activity (Calf thymus DNA [5]) of the same compound?
**A.** The Activity was 428 nm.

**Q.** What about the Activity (dsDNA [6]) of the same compound?
**A.** The Activity was 422 nm.

**Q.** And the Activity (Quadruplex DNA [7])?
**A.** The Activity was 432 nm.

**Q.** What about the Activity (Quadruplex DNA [8]) of the same compound?
**A.** The Activity was 422 nm.

**Q.** What about the Activity (dsDNA [9]) of the same compound?
**A.** The Activity was 541 nm.

**Q.** And the Activity (Quadruplex DNA [10])?
**A.** Its Activity is 547 nm.

**Q.** What about the Activity (Quadruplex DNA [11]) of the same compound?
**A.** Its Activity is 545 nm.

**Q.** And the Time (Quadruplex DNA [12])?
**A.** The Time was 7.04 nanoseconds.

**Q.** What about the Time (Quadruplex DNA [13]) of the same compound?
**A.** Its Time is 6.55 nanoseconds.

**Q.** What about the Time (Quadruplex DNA [14]) of the same compound?
**A.** Its Time is 7.25 nanoseconds.

**Q.** And the fold change (FC) (Quadruplex DNA [15])?
**A.** The fold change (FC) was 11.2 to 20.6.

**Q.** What about the fold change (FC) (Quadruplex DNA [16]) of the same compound?
**A.** Its fold change (FC) is 11.2 to 20.6.

**Q.** And the fold change (FC) (Quadruplex DNA [17])?
**A.** The fold change (FC) was 11.2 to 20.6.

**Q.** What about the Ratio (Quadruplex DNA [18]) of the same compound?
**A.** Its Ratio is over 6.

**Q.** What about the Ratio (Quadruplex DNA [19]) of the same compound?
**A.** Its Ratio is over 6.

**Q.** And the Ratio (dsDNA [20])?
**A.** The Ratio was over 6.

**Q.** And the Activity (HepG2)?
**A.** Its Activity is “Active”.

**Q.** What about the Drug uptake [21] of the same compound?
**A.** Its Drug uptake is “Active”.

**Q.** What about the Drug uptake [22] of the same compound?
**A.** The Drug uptake was “Not Active”.

**Q.** What about the Drug uptake [23] of the same compound?
**A.** The Drug uptake was “Active”.

**Q.** What does the source list for `CCn1c2ccccc2c2cc(/C=C/c3sc4ccccc4[n+]3CC)ccc21.[I-]`?
**A.** Activity (Calf thymus DNA [24]): 40.1%; Activity (Quadruplex DNA [25]): 41.1%; Activity (dsDNA [26]): 17 nm; Activity (Quadruplex DNA [27]): 21 nm; Activity (dsDNA [28]): 470 nm; Activity (dsDNA [29]): 568 nm; Activity (Quadruplex DNA [30]): 586 nm; Activity (Quadruplex DNA [31]): 581 nm; Activity (Quadruplex DNA [32]): 578 nm; Time (dsDNA [33]): 2.69 nanoseconds; Time (Quadruplex DNA [34]): 1.68 nanoseconds; Time (Quadruplex DNA [35]): 2.09 nanoseconds; Drug uptake [36]: Not Active; Drug uptake [37]: Active
